Among the data in ChEMBL document CHEMBL4371049, “Semi-synthesis and anti-tumor activity of novel 25-OCH3-PPD derivatives incorporating aromatic moiety” (Bioorg Med Chem Lett, 2019) are IC50 values, retold here.

Holding throughout (assay type): functional, cell-based
Assay [1] has as its system BGC-823. The assay is described as follows: Antiproliferative activity against human BGC823 cells after 48 hrs by MTT assay. The conditions noted are these: BGC-823, 48 h. (Formazan colour is commonly taken as a measure of viable cells.)
Assay [2] relates to PC-3. Nature of the assay: Antiproliferative activity against human PC3 cells after 48 hrs by MTT assay. The conditions noted are these: PC-3, 48 h.
Assay [3] relates to DU-145. Nature of the assay: Antiproliferative activity against human DU145 cells after 48 hrs by MTT assay. The conditions noted are these: DU-145, 48 h.
The subject of assay [4] is HepG2. The assay is described as follows: Antiproliferative activity against human HepG2 cells after 48 hrs by MTT assay. The conditions noted are these: HepG2, 48 h.
Assay [5] deals with MCF7. The assay is described as follows: Antiproliferative activity against human MCF7 cells after 48 hrs by MTT assay. As to conditions: MCF7, 48 h.

On to `COC(C)(C)CCC[C@@](C)(O)[C@H]1CC[C@]2(C)[C@@H]1[C@H](O)C[C@@H]1[C@@]3(C)CC[C@H](O)C(C)(C)[C@@H]3CC[C@]12C`, for which the IC50 (as a rule, the point on the concentration scale where inhibition reaches its midpoint) amounted to 36 µM in assay [1]; 39.5 µM in assay [2]; 40.7 µM in assay [3]; 35.9 µM in assay [4]; 31.3 µM in assay [5].

`COC(C)(C)CCC[C@@](C)(O)[C@H]1CC[C@]2(C)[C@@H]1[C@H](O)C[C@@H]1[C@@]3(C)CC[C@H](OC(=O)c4ccccc4C)C(C)(C)[C@@H]3CC[C@]12C`: the IC50 in assay [1] was above 50 µM; in assay [2], above 50 µM; in assay [3] it was 44.3 µM; in assay [4], above 50 µM; in assay [5] it was 37.6 µM.

Take `COC(C)(C)CCC[C@@](C)(O)[C@H]1CC[C@]2(C)[C@@H]1[C@H](OC(=O)c1cc([N+](=O)[O-])cc([N+](=O)[O-])c1)C[C@@H]1[C@@]3(C)CC[C@H](O)C(C)(C)[C@@H]3CC[C@]12C`: the IC50 in assay [1], in assay [2], in assay [3], in assay [4] and in assay [5] was above 50 µM throughout.

For the molecule `COC(C)(C)CCC[C@@](C)(O)[C@H]1CC[C@]2(C)[C@@H]1[C@H](OC(=O)c1cc(C)cc(C)c1)C[C@@H]1[C@@]3(C)CC[C@H](OC(=O)c4cc(C)cc(C)c4)C(C)(C)[C@@H]3CC[C@]12C`, the concentration for half-maximal inhibition (IC50) in assay [1], in assay [2], in assay [3], in assay [4] and in assay [5] was above 50 µM each time.

With `COC(C)(C)CCC[C@@](C)(O)[C@H]1CC[C@]2(C)[C@@H]1[C@H](O)C[C@@H]1[C@@]3(C)CC[C@H](OC(=O)c4ccc(Cl)cc4)C(C)(C)[C@@H]3CC[C@]12C`, the IC50 in assay [1] came to 26.4 µM; in assay [2], 28.3 µM; in assay [3], 20.5 µM; in assay [4], 25.7 µM; in assay [5], 19 µM.

Regarding `COC(C)(C)CCC[C@@](C)(O)[C@H]1CC[C@]2(C)[C@@H]1[C@H](O)C[C@@H]1[C@@]3(C)CC[C@H](OC(=O)c4ccc(F)cc4)C(C)(C)[C@@H]3CC[C@]12C`, the IC50 was determined as 12.7 µM in assay [1]; 15 µM in assay [2]; 13.8 µM in assay [3]; 8.5 µM in assay [4]; 9.4 µM in assay [5].

Consider `COC(C)(C)CCC[C@@](C)(O)[C@H]1CC[C@]2(C)[C@@H]1[C@H](O)C[C@@H]1[C@@]3(C)CC[C@H](OC(=O)c4ccccc4)C(C)(C)[C@@H]3CC[C@]12C`, for which the IC50 in assay [1] was determined as 35.1 µM; in assay [2] it was 30.4 µM; in assay [3], 23.5 µM; in assay [4] it was 17.8 µM; in assay [5] it was 18.9 µM.

Regarding `COC(C)(C)CCC[C@@](C)(O)[C@H]1CC[C@]2(C)[C@@H]1[C@H](OC(=O)c1ccc([N+](=O)[O-])cc1)C[C@@H]1[C@@]3(C)CC[C@H](O)C(C)(C)[C@@H]3CC[C@]12C`, the IC50 in assay [1], in assay [2], in assay [3], in assay [4] and in assay [5] was above 50 µM in each case.

On to `COC(C)(C)CCC[C@@](C)(O)[C@H]1CC[C@]2(C)[C@@H]1[C@H](OC(=O)/C=C/c1ccc(F)cc1)C[C@@H]1[C@@]3(C)CC[C@H](O)C(C)(C)[C@@H]3CC[C@]12C`, for which the IC50 in assay [1], in assay [2], in assay [3], in assay [4] and in assay [5] was above 50 µM throughout.

On to `COC(C)(C)CCC[C@@](C)(O)[C@H]1CC[C@]2(C)[C@@H]1[C@H](OC(=O)c1ccc(Br)cc1)C[C@@H]1[C@@]3(C)CC[C@H](O)C(C)(C)[C@@H]3CC[C@]12C`, for which the IC50 in assay [1], in assay [2], in assay [3], in assay [4] and in assay [5] was above 50 µM throughout.

As to `COC(C)(C)CCC[C@@](C)(O)[C@H]1CC[C@]2(C)[C@@H]1[C@H](OC(=O)c1cc([N+](=O)[O-])cc([N+](=O)[O-])c1)C[C@@H]1[C@@]3(C)CC[C@H](OC(=O)c4cc([N+](=O)[O-])cc([N+](=O)[O-])c4)C(C)(C)[C@@H]3CC[C@]12C`, the IC50 is above 50 µM in assay [1]; above 50 µM in assay [2]; 44.6 µM in assay [3]; above 50 µM in assay [4]; 38.2 µM in assay [5].

Consider `COC(C)(C)CCC[C@@](C)(O)[C@H]1CC[C@]2(C)[C@@H]1[C@H](OC(=O)c1ccccc1I)C[C@@H]1[C@@]3(C)CC[C@H](OC(=O)c4ccccc4I)C(C)(C)[C@@H]3CC[C@]12C`, for which the IC50 in assay [1], in assay [2], in assay [3], in assay [4] and in assay [5] was above 50 µM in each case.

On to `COC(C)(C)CCC[C@@](C)(O)[C@H]1CC[C@]2(C)[C@@H]1[C@H](O)C[C@@H]1[C@@]3(C)CC[C@H](OC(=O)c4ccc(Br)cc4)C(C)(C)[C@@H]3CC[C@]12C`, for which the IC50 in assay [1] came out at 26.2 µM; in assay [2], 35.7 µM; in assay [3], 23.1 µM; in assay [4], 25.7 µM; in assay [5] it was 17.6 µM.

With `COC(C)(C)CCC[C@@](C)(O)[C@H]1CC[C@]2(C)[C@@H]1[C@H](OC(=O)c1ccc(I)cc1)C[C@@H]1[C@@]3(C)CC[C@H](OC(=O)c4ccc(I)cc4)C(C)(C)[C@@H]3CC[C@]12C`, the IC50 in assay [1], in assay [2], in assay [3], in assay [4] and in assay [5] was above 50 µM throughout.

For the molecule `COC(C)(C)CCC[C@@](C)(O)[C@H]1CC[C@]2(C)[C@@H]1[C@H](OC(=O)c1ccc(Br)cc1)C[C@@H]1[C@@]3(C)CC[C@H](OC(=O)c4ccc(Br)cc4)C(C)(C)[C@@H]3CC[C@]12C`, the IC50 in assay [1], in assay [2], in assay [3], in assay [4] and in assay [5] was above 50 µM throughout.

Regarding `COC(C)(C)CCC[C@@](C)(O)[C@H]1CC[C@]2(C)[C@@H]1[C@H](OC(=O)c1ccccc1C)C[C@@H]1[C@@]3(C)CC[C@H](O)C(C)(C)[C@@H]3CC[C@]12C`, the IC50 in assay [1], in assay [2], in assay [3], in assay [4] and in assay [5] was above 50 µM throughout.

In the case of `COC(C)(C)CCC[C@@](C)(O)[C@H]1CC[C@]2(C)[C@@H]1[C@H](OC(=O)c1cc(I)ccc1Cl)C[C@@H]1[C@@]3(C)CC[C@H](OC(=O)c4cc(I)ccc4Cl)C(C)(C)[C@@H]3CC[C@]12C`, the IC50 in assay [1], in assay [2], in assay [3], in assay [4] and in assay [5] was above 50 µM each time.

Turning to `COC(C)(C)CCC[C@@](C)(O)[C@H]1CC[C@]2(C)[C@@H]1[C@H](O)C[C@@H]1[C@@]3(C)CC[C@H](OC(=O)c4cc(Br)cc(Br)c4)C(C)(C)[C@@H]3CC[C@]12C`, the IC50 in assay [1] was found to be 36.1 µM; in assay [2], 38.4 µM; in assay [3], 22.6 µM; in assay [4] it was 43.6 µM; in assay [5] it was 41.7 µM.

In the case of `COC(C)(C)CCC[C@@](C)(O)[C@H]1CC[C@]2(C)[C@@H]1[C@H](OC(=O)/C=C/c1ccc(Cl)cc1)C[C@@H]1[C@@]3(C)CC[C@H](OC(=O)/C=C/c4ccc(Cl)cc4)C(C)(C)[C@@H]3CC[C@]12C`, the IC50 in assay [1], in assay [2], in assay [3], in assay [4] and in assay [5] was above 50 µM throughout.

Consider `COC(C)(C)CCC[C@@](C)(O)[C@H]1CC[C@]2(C)[C@@H]1[C@H](O)C[C@@H]1[C@@]3(C)CC[C@H](OC(=O)c4ccccc4[N+](=O)[O-])C(C)(C)[C@@H]3CC[C@]12C`, for which the IC50 in assay [1] came out at 7.9 µM; in assay [2], 14.8 µM; in assay [3] it was 11.5 µM; in assay [4], 12 µM; in assay [5] it was 8.6 µM.

For `COC(C)(C)CCC[C@@](C)(O)[C@H]1CC[C@]2(C)[C@@H]1[C@H](OC(=O)c1ccc(F)cc1F)C[C@@H]1[C@@]3(C)CC[C@H](OC(=O)c4ccc(F)cc4F)C(C)(C)[C@@H]3CC[C@]12C`, the IC50 was 37.7 µM in assay [1]; 43.2 µM in assay [2]; above 50 µM in assay [3]; above 50 µM in assay [4]; above 50 µM in assay [5].

As for `COC(C)(C)CCC[C@@](C)(O)[C@H]1CC[C@]2(C)[C@@H]1[C@H](O)C[C@@H]1[C@@]3(C)CC[C@H](OC(=O)c4ccccc4I)C(C)(C)[C@@H]3CC[C@]12C`, the IC50 was 28.7 µM in assay [1]; 46.5 µM in assay [2]; 28.1 µM in assay [3]; 39.2 µM in assay [4]; 33.4 µM in assay [5].

On to `COC(C)(C)CCC[C@@](C)(O)[C@H]1CC[C@]2(C)[C@@H]1[C@H](OC(=O)c1cc(F)ccc1Br)C[C@@H]1[C@@]3(C)CC[C@H](OC(=O)c4cc(F)ccc4Br)C(C)(C)[C@@H]3CC[C@]12C`, for which the IC50 in assay [1], in assay [2], in assay [3], in assay [4] and in assay [5] was above 50 µM each time.

With `O=c1[nH]cc(F)c(=O)[nH]1` [FLUOROURACIL], the IC50 in assay [1] stood at 24.8 µM; in assay [2] it was 23.1 µM; in assay [3], 25.3 µM; in assay [5], 22.6 µM.
